Experiments:
Assay type in all cases: cell-based
human CCR6 [1] = molecular target: T1, human CCR6 (Homo sapiens, UniProt P51684); test: CHO-K1 CCR6 chemotaxis assay towards CCL20; details: relative -Log IC50; CHO-K1 cells overexpressing human CCR6; migration towards 100 ng/ml CCL20; 4 h
T1 sequence (P51684 1-374): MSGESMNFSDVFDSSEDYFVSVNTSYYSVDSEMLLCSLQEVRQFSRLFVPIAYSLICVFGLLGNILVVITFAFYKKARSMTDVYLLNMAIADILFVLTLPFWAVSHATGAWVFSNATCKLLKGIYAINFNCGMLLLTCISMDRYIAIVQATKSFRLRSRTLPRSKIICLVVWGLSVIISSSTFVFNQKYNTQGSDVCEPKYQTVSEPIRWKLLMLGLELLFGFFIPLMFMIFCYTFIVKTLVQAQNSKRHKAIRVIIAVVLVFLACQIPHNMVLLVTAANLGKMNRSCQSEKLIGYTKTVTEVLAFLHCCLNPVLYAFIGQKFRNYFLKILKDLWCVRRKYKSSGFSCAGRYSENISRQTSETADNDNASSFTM
How it was run: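 Human CCR6-overexpressing CHO-K1 cells (2*10^6 cells/ml) were preincubated 30 min at 37 °C with compound (0.2% DMSO), then allowed to migrate 4 h through 8 µm Transwell pores toward 100 ng/ml CCL20. Migrated cells were counted by CellTiter Glo. −Log IC50 came from four-parameter fits normalised to DMSO without/with CCL20.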

human CCR6 [2] = molecular target: T1, human CCR6; test: Human CCR6-CRE reporter assay; set-up: The second construct contained the open reading frame of human CCR6 in the pUNO1 backbone; host or cells: 293FT cells; details: relative -Log IC50; 293FT cells transfected with human CCR6 and CRE-luciferase reporter; 6 μM Forskolin, 6 nM CCL20; 5 h
How it was run: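 293FT cells transiently co-transfected with human CCR6 and a CRE-luc2P reporter, used 48 h later. Compounds incubated with cells in medium containing 6 μM Forskolin and 6 nM CCL20 (assay-medium levels), 0.1% DMSO final, 5 h at 37° C; luminescence read, relative −Log IC50 from four-parameter fit.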

Human CD4+ T cells = test: CD4+ T cells chemotaxis assay towards CCL20; details: Homo sapiens, CD4+ T cell, 3 h, relative -Log IC50, human CD4+ T cells stimulated with anti-CD3 and anti-CD28, migration towards 150 ng/ml CCL20
From the text: CD4+ T Cells Chemotaxis Assay Towards CCL20
Human CD4+ T cells were isolated from buffy coats of healthy donors using a CD4+ T Cell Isolation Kit (Miltenyi Biotec130-096-533). Isolated T cells were stimulated overnight with anti-CD3 and anti-CD28 antibodies (Biolegend 300314/302934) in growth medium (RPMI1640, 10% heat-inactivated FBS, 1× pen/strep (Gibco 15140)). For the chemotaxis assay, Corning Transwell plates were used with a pore size of 5 m (Corning 3388). T cells were counted and diluted to 6*10^6 cells/ml in chemotaxis medium (RPMI1640, 1% BSA, pen/strep). Compounds were four-fold serially diluted in DMSO. Further dilutions were made in chemotaxis medium. Cells were incubated with test compounds for 30 min at 37° C. prior to initiation of the assay (3*10^6 cells/ml). Final DMSO concentration in the assay was 0.2%. Wells of the Transwell plates were filled with 200 μl chemotaxis medium containing 150 ng/ml CCL20 (R&D systems 360-MP). 50 μl of the cell/compound suspension was added to the inserts of the Transwell plates (150,000 cells/insert). The Transwell plates were placed in an incubator at 37° C., 5% CO2 for 3 h. After 3 h, the number of migrated cells was quantified using CellTiter Glo (Promega). Percentage inhibition values were calculated based on the low and high signal obtained with 0.2% DMSO in chemotaxis medium without and with CCL20, respectively. The relative −Log IC50 was determined with GraphPad Prism 9 using a four-parameter dose-response model.

Row | Compound | IC50 (human CCR6 [1]) [nM] | IC50 (human CCR6 [2]) [nM] | IC50 (Human CD4+ T cells) [nM]
1 | NC(=O)c1cc(-c2ccc(S(=O)(=O)[C@H]3CC[C@H](Nc4ccc(S(F)(F)(F)(F)F)cc4)CC3)cc2)ccn1 [Example 10, 4-(4-{[trans-4-{[4-(pentafluoro-λ^6-sulfanyl)phenyl]Amino}cyclohexyl]sulfonyl}phenyl)pyridine-2-carboxamide] | 5.01 | 79.4 | 2
2 | NC(=O)c1nnc2ccc(-c3ccc(S(=O)(=O)N4CCC(Nc5ccc(S(F)(F)(F)(F)F)cc5)CC4)cc3)cn12 [Example 26, 6-{4-[(4-{[4-(pentafluoro-λ^6-sulfanyl)phenyl]Amino}piperidin-1-yl)sulfonyl]phenyl}-[1,2,4]triazolo[4,3-a]pyridine-3-carboxamide] | 100 | 50.1 | 15.8
3 | Cc1nnc2ccc(-c3ccc(S(=O)(=O)N4CCC(Nc5ccc(S(F)(F)(F)(F)F)cc5)CC4)cc3)cn12 [Example 27, 1-(4-{3-methyl-[1,2,4]triazolo[4,3-a]pyridin-6-yl}benzenesulfonyl)-N-[4-(pentafluoro-λ^6-sulfanyl)phenyl]piperidin-4-amine] | 63.1 | 63.1 | 5.01
4 | NC(=O)c1cnc2ccc(-c3ccc(S(=O)(=O)[C@H]4CC[C@H](Nc5ccc(S(F)(F)(F)(F)F)cc5)CC4)cc3)cn12 [Example 34, 6-(4-{[trans-4-{[4-(pentafluoro-λ^6-sulfanyl)phenyl]Amino}cyclohexyl]sulfonyl}phenyl)imidazo[1,2-a]pyridine-3-carboxamide] | 39.8 | 200 | 63.1
5 | CC(C)c1nnc2ccc(-c3ccc(S(=O)(=O)[C@H]4CC[C@H](Nc5ccc(S(F)(F)(F)(F)F)cc5)CC4)cc3)cn12 [Example 35, 4-(pentafluoro-λ^6-sulfanyl)-N-[trans-4-{4-[3-(propan-2-yl)-[1,2,4]triazolo[4,3-a]pyridin-6-yl]benzenesulfonyl}cyclohexyl]aniline] | 3.98 | 79.4 | 0.501
6 | CC(C)c1nnc2cnc(-c3ccc(S(=O)(=O)[C@H]4CC[C@H](Nc5ccc(S(F)(F)(F)(F)F)cc5)CC4)cc3)cn12 [Example 51, 4-(pentafluoro-λ^6-sulfanyl)-N-[trans-4-{4-[3-(propan-2-yl)-[1,2,4]triazolo[4,3-a]pyrazin-6-yl]benzenesulfonyl}cyclohexyl]aniline] | 7.94 | 63.1 | 2
7 | O=c1[nH]ccn2cc(-c3ccc(S(=O)(=O)[C@H]4CC[C@H](Nc5ccc(S(F)(F)(F)(F)F)cc5)CC4)cc3)cc12 [Example 154, 7-(4-{[trans-4-{[4-(pentafluoro-λ^6-sulfanyl)phenyl]amino}cyclohexyl]sulfonyl}phenyl)-1H,2H-pyrrolo[1,2-a]pyrazin-1-one] | – | 126 | 7.94
8 | N#Cc1cc(-c2ccc(S(=O)(=O)[C@H]3CC[C@H](Nc4ccc(S(F)(F)(F)(F)F)cc4)CC3)cc2)cn2ccnc12 [Example 160, 6-(4-{[trans-4-{[4-(pentafluoro-λ^6-sulfanyl)phenyl]amino}cyclohexyl]sulfonyl}phenyl)imidazo[1,2-a]pyridine-8-carbonitrile] | – | 50.1 | 3.98

Further compounds by falling IC50 (human CCR6 [2]), results first:

Row | IC50 (human CCR6 [1]) [nM] | IC50 (human CCR6 [2]) [nM] | IC50 (Human CD4+ T cells) [nM] | Compound
9 | – | 251 | 100 | O=S(=O)(c1ccc(-c2ccc3nnc(C4CNC4)n3c2)cc1)[C@H]1CC[C@H](Nc2ccc(S(F)(F)(F)(F)F)cc2)CC1 [Example 168, 4-(pentafluoro-λ^6-sulfanyl)-N-[trans-4-{4-[3-(azetidin-3-yl)-[1,2,4]triazolo[4,3-a]pyridin-6-yl]benzenesulfonyl}cyclohexyl]aniline]
10 | 200 | 158 | 6.31 | O=S(=O)(c1ccc(-c2ccc3nccn3c2)cc1)[C@H]1CC[C@@H](Nc2ccc(S(F)(F)(F)(F)F)cc2)CC1 [Example 18, 4-(pentafluoro-λ^6-sulfanyl)-N-[cis-4-(4-{imidazo[1,2-a]pyridin-6-yl}benzenesulfonyl)cyclohexyl]aniline]
11 | 79.4 | 158 | 5.01 | Cc1nc2cc(-c3ccc(S(=O)(=O)[C@H]4CC[C@H](Nc5ccc(S(F)(F)(F)(F)F)cc5)CC4)cc3)ccn2n1 [Example 41, 4-(pentafluoro-λ^6-sulfanyl)-N-[trans-4-(4-{2-methyl-[1,2,4]triazolo[1,5-a]pyridin-7-yl}benzenesulfonyl)cyclohexyl]aniline]
12 | 158 | 126 | 50.1 | CC(C)c1nnc2ccc(-c3ccc(S(=N)(=O)[C@H]4CC[C@H](Nc5ccc(S(F)(F)(F)(F)F)cc5)CC4)cc3)cn12 (relative stereo) [Example 102, {4-[3-(propan-2-yl)-[1,2,4]triazolo[4,3-a]pyridin-6-yl]phenyl}[trans-4-{[4-(pentafluoro-λ^6-sulfanyl)phenyl]Amino}cyclohexyl](imino)-λ^6-sulfanone]
13 | 100 | 126 | 25.1 | CC(C)c1nnc2ccc(-c3ccc(S(=O)(=O)[C@H]4CC[C@H](Nc5ccc(S(F)(F)(F)(F)F)cc5)CC4)cc3)nn12 [Example 50, 4-(pentafluoro-λ^6-sulfanyl)-N-[trans-4-{4-[3-(propan-2-yl)-[1,2,4]triazolo[4,3-b]pyridazin-6-yl]benzenesulfonyl}cyclohexyl]aniline]
14 | 25.1 | 100 | 3.98 | Cc1nnc2ccc(-c3ccc(S(=O)(=O)[C@H]4CC[C@H](Nc5ccc(S(F)(F)(F)(F)F)cc5)CC4)cc3)cn12 [Example 11, 4-(pentafluoro-λ^6-sulfanyl)-N-[trans-4-(4-{3-methyl-[1,2,4]triazolo[4,3-a]pyridin-6-yl}benzenesulfonyl)cyclohexyl]aniline]
15 | 398 | 100 | 31.6 | CN(C)C(=O)c1ccc(-c2ccc(S(=O)(=O)[C@H]3CC[C@H](Nc4ccc(S(F)(F)(F)(F)F)cc4)CC3)cc2)cn1 [Example 20, N,N-dimethyl-5-(4-{[trans-4-{[4-(pentafluoro-λ^6-sulfanyl)phenyl]Amino}cyclohexyl]sulfonyl}phenyl)pyridine-2-carboxamide]
16 | 126 | 100 | 25.1 | N#Cc1c[nH]c2ccc(-c3ccc(S(=N)(=O)[C@H]4CC[C@H](Nc5ccc(S(F)(F)(F)(F)F)cc5)CC4)cc3)cc12 (stereo partly drawn) [Example 85, 5-(4-{[trans-4-{[4-(pentafluoro-λ^6-sulfanyl)phenyl]Amino}cyclohexyl]sulfonimidoyl}phenyl)-1H-indole-3-carbonitrile]
17 | – | 79.4 | 7.94 | O=S(=O)(c1ccc(-c2ccc3nnc([C@@H]4CCCN4)n3c2)cc1)[C@H]1CC[C@H](Nc2ccc(S(F)(F)(F)(F)F)cc2)CC1 [Example 161, 4-(pentafluoro-λ^6-sulfanyl)-N-[trans-4-(4-{3-[(2S)-pyrrolidin-2-yl]-[1,2,4]triazolo[4,3-a]pyridin-6-yl}benzenesulfonyl)cyclohexyl]aniline]
18 | 25.1 | 39.8 | 0.631 | Cc1[nH]nc2ccc(-c3ccc(S(=O)(=O)[C@H]4CC[C@H](Nc5ccc(S(F)(F)(F)(F)F)cc5)CC4)cc3)cc12 [Example 6, 4-(pentafluoro-λ^6-sulfanyl)-N-[trans-4-[4-(3-methyl-2H-indazol-5-yl)benzenesulfonyl]cyclohexyl]aniline]

Source: patent publication US20260070902A1, “SULFONYL DERIVATIVES AS CCR6 INHIBITORS” (Hoffmann-La Roche Inc., priority 2022, published 2026)
